Reference: patent publication EP0327365B1, “Improvements in or relating to modified haptens useful as imaging and therapeutic agents” (HYBRITECH INCORPORATED, priority 1988, dated 1989)

Columns and labels:
T-380 tumors = test: Hapten biodistribution, premix protocol with bifunctional antibody ECH037.2; format: in vivo, nude mice; set-up: TOTAL RECOV: unit not given here; details: for % DOSE PER GRAM, KIDNEY / % DOSE PER GRAM, LIVER / % DOSE PER GRAM, TUMOR / FECES / TOTAL RECOV / URINE / % DOSE PER GRAM, BLOOD / TUMOR/BLOOD: premix with 20 µg ECH037.2; for % DOSE PER GRAM, BLOOD: 111In-labeled hapten i.v.; for TUMOR/BLOOD: ratio; for Percent Injected Dose in Feces: premix protocol (Table VI); for %Dose per Gram, Blood / %Dose per Gram, Tumor: premix with 20 µg ECH037.2 (Table VIII)
Experimental: Two protocols were used for examining the biodistribution of the derivatized haptens in the presence of the bifunctional antibody ECH037.2. In a premix protocol, ECH037.2 and the derivatized hapten were combined prior to injection in the animals. In the prelocalization protocol, ECH037.2 was injected into the animals, and the antibody was allowed to prelocalize for 24 hours prior to injection of the radiolabeled hapten.
Biodistribution studies were performed in nude mice carrying subcutaneous implants of the human colon carcinoma cell line T-380 which expresses the carcinoembryonic antigen (CEA) recognized by ECH037.2. Briefly, Balb/C Nu/Nu mice were injected subcutaneously with a minced preparation of T-380 tumor implants and maintained for approximately two weeks, or until the tumor implant had grown to a size of approximately 0.5 grams as described by Hagan, P.L., et al. J. Nuc. Med., 26 1418-1423 (1985). Mice were kept in a sterile environment to prevent complications due to bacterial or viral infections. Biodistributions were performed as described by Halpern, S., et al., Cancer Res. 43, 5347-5355 (1983). Briefly, the radiolabeled haptens were injected intravenously in […], and the pharmacokinetics were evaluated at several time points post-injection. At these times, mice were sacrificed and weighed. Organs were removed, their weight recorded, and each organ was then washed in sterile PBS, pH 7.0, and fixed in formalin solution. Samples of blood, urine and feces also were collected and their weight similarly recorded. The organs, or a portion thereof, were transferred to clean tubes and their radioactive content was determined in a well-type gamma-counter.
Relative radioactive content of each organ was expressed as a percentage of injected dose per organ.
To indium-label the haptens of the invention 10 »l of 0.1 mM ligand was combined with X »l of ¹¹¹InCl₃ (in 50 mM HCl) and (x+10) »l of 0.26 M ammonium citrate, pH 6.0. X is calculated by the following equation: X = (200 »Ci)/(A »Ci/»l) [formula] where A is the specific activity of the ¹¹¹In.
The labeling was done in an acid-washed microfuge tube. After combining all of the components above, the solution was vortexed and allowed to stand at room temperature for 15 minutes.
Incorporation of the ¹¹¹In into the chelating agent was determined by TLC on silica in a methanol/aqueous ammonium acetate solvent system as described by Meares, et al. (Anal. Biochem., 142, 68-75 (1984)). Greater than 95% incorporation of the radioactivity into the chelate was required for the sample to be submitted for a biodistribution assay.
Prior to injection the ¹¹¹In-labeled hapten was diluted into freshly prepared isotonic sodium bicarbonate (1.39% w/v) containing 1 mg/ml normal human serum albumin (Buminate, 25% solution, Travenol Laboratories, Glendale, California) to which the bifunctional antibody had been added. The final composition of the solution was 0.2 mg/ml ECH037.2, 0.5 »M chelate, 0.1 »Ci/»l ¹¹¹In, all in a volume of 2.0 ml. For the biodistribution studies, 100 »l of the solution was injected into the tail vein of each animal.

[1] = test system: monoclonal antibody CHA255; test: Determination of hapten-antibody dissociation rates; format: binding, BALB/c mice; details: 22°C; indium complex of hapten from CHA255 after 100 fold excess of indium-115 loaded hapten
Experimental: Hapten-antibody dissociation rates were determined using monoclonal antibody CHA255, prepared as described in Example 2A, by measuring the quantity of ¹¹¹In³⁺ chelate released from the antibody hapten complex as a function of time after addition of a 100 fold excess (over antibody binding sites) of indium-115 loaded hapten. Thus, for each hapten, a 700 »l solution was prepared containing: antibody at a concentration of 160 nM; indium loaded hapten, trace labeled with ¹¹¹In (total concentration = 160 nM); normal human serum albumin at a total concentration of 1.5 mg/mL; and isotonic phosphate buffered saline, (10 mM PO₄²⁻, 150 mM NaCl, pH 7.2). Indium-115 loaded hapten was added to a final Concentration of […]. Reactions were stirred by placing the sample containers ir a rack mounted on a vortexer head.
At various times after addition of the excess hapten, […] portions of the reaction solutions were transferred to Centrifree tubes (Amicon Corperation, Danvers, Massachusetts) and centrifuged at 1500xg for eight to ten minutes. The reaction time was taken to be the time between addition of the excess hapten and the time the centrifuge reached the desired velocity. Six timepoints, each in duplicate, were obtained over a range of about two reaction half-lives for each rate constant determination. A 200 »l portion from each centrifuged and uncentrifuged solution was then counted for ¹¹¹In. The relative concentration of free hapten was taken to be the ratio of counts in the centrifuged solution to the uncentrifuged solution at each timepoint. Times were recorded to the nearest tenth of a minute.
Room temperature rate constants were measured without the aid of a constant temperature bath. The ambient temperature remained at 22°±1 C.
Rate constants and standard deviations were obtained from a plot of the logarithm of relative complex concentration vs. time. Data were analyzed using the linear regression module of the RS/1 Program (BBN Software Products Corporation, Cambridge, Massachusetts).
Control samples were included in each experiment to determine: A) that the initial condition of 100% of labeled hapten bound to antibody was met, and B) that in the absence of antibody, 100% of counts were able to penetrate the Centrifree membrane. […]

| Compound | % DOSE PER GRAM, KIDNEY (T-380 tumors; 24 hours) | % DOSE PER GRAM, LIVER (T-380 tumors; 24 hours) | % DOSE PER GRAM, TUMOR (T-380 tumors; 24 hours) | FECES (T-380 tumors; 24 hours) | TOTAL RECOV (T-380 tumors; 24 hours) | URINE (T-380 tumors; 24 hours) | % DOSE PER GRAM, BLOOD (T-380 tumors; 24 hours) | TUMOR/BLOOD (T-380 tumors; 24 hours) | Percent Injected Dose in Feces (T-380 tumors; 24 hrs.) | % DOSE PER GRAM, KIDNEY (T-380 tumors; 48 hours) | % DOSE PER GRAM, LIVER (T-380 tumors; 48 hours) | % DOSE PER GRAM, TUMOR (T-380 tumors; 48 hours) | FECES (T-380 tumors; 48 hours) | TOTAL RECOV (T-380 tumors; 48 hours) | URINE (T-380 tumors; 48 hours) | % DOSE PER GRAM, BLOOD (T-380 tumors; 48 hours) | TUMOR/BLOOD (T-380 tumors; 48 hours) | Percent Injected Dose in Feces (T-380 tumors; 48 hrs.) | t1/2, Dissociation Half-Lives [1] | further results |
| --- | --- | --- | --- | --- | --- | --- | --- | --- | --- | --- | --- | --- | --- | --- | --- | --- | --- | --- | --- | --- |
| CCNC(=S)Nc1ccc(CC(CN(CC(=O)O)CC(=O)O)N(CC(=O)O)CC(=O)O)cc1 (stereo not shown) [ETUBE] | 2.4 % DOSE PER GRAM | 3.5 % DOSE PER GRAM | 8.0 % DOSE PER GRAM | 5.9% of total injected dose | 52.2 | 25.8% of total injected dose | 10.4 % DOSE PER GRAM | 0.77 | 6.7 Percent Injected Dose | 1.2 % DOSE PER GRAM | 2.4 % DOSE PER GRAM | 10.4 % DOSE PER GRAM | 15.2% of total injected dose | 66.6 | 36.0% of total injected dose | 5.9 % DOSE PER GRAM | 1.76 | 15.2 Percent Injected Dose | 1.21 h | amount of hapten in the tumor (T-380 tumors; 24 hrs., premix protocol): 8.0 percent injected dose/gram; injected material excreted in the feces (T-380 tumors; 48 hrs. post injection, premix protocol): 15.2% of the injected material; amount of hapten in the tumor (T-380 tumors; 48 hrs., premix protocol): 10.4 percent injected dose/gram |
| O=C(O)CCCC(=O)NCCNC(=S)Nc1ccc(CC(CN(CC(=O)O)CC(=O)O)N(CC(=O)O)CC(=O)O)cc1 (stereo not shown) [GNUBE] | 2.7 % DOSE PER GRAM | 3.4 % DOSE PER GRAM | 9.0 % DOSE PER GRAM | 10.6% of total injected dose | 52.0 | 14.2% of total injected dose | 13.0 % DOSE PER GRAM | 0.70 | 10.6 Percent Injected Dose | 1.5 % DOSE PER GRAM | 2.4 % DOSE PER GRAM | 12.0 % DOSE PER GRAM | 17.8% of total injected dose | 63.1 | 26.9% of total injected dose | 8.0 % DOSE PER GRAM | 1.49 | 17.8 Percent Injected Dose | 1.65 h | – |
| NCCNC(=S)Nc1ccc(CC(CN(CC(=O)O)CC(=O)O)N(CC(=O)O)CC(=O)O)cc1 (stereo not shown) [NUBE] | 4.0 % DOSE PER GRAM | 3.1 % DOSE PER GRAM | 8.5 % DOSE PER GRAM | 5.9% of total injected dose | 66.3 | 42.5% of total injected dose | 5.9 % DOSE PER GRAM | 1.44 | 5.9 Percent Injected Dose | 2.5 % DOSE PER GRAM | 1.9 % DOSE PER GRAM | 8.1 % DOSE PER GRAM | 12.9% of total injected dose | 74.1 | 52.6% of total injected dose | 2.0 % DOSE PER GRAM | 4.0 | 12.9 Percent Injected Dose | 0.76 h | %Dose per Gram, Blood (T-380 tumors; 24 hrs. post-injection): 5.8 %Dose per Gram; %Dose per Gram, Tumor (T-380 tumors; 24 hrs. post-injection): 11.7 %Dose per Gram; %Dose per Gram, Blood (T-380 tumors; 48 hrs. post-injection): 3.3 %Dose per Gram; %Dose per Gram, Tumor (T-380 tumors; 48 hrs. post-injection): 12.2 %Dose per Gram; %Dose per Gram, Blood (T-380 tumors; 72 hrs. post-injection): 0.7 %Dose per Gram; %Dose per Gram, Tumor (T-380 tumors; 72 hrs. post-injection): 10.5 %Dose per Gram |
| O=C(O)CCNC(=S)Nc1ccc(CC(CN(CC(=O)O)CC(=O)O)N(CC(=O)O)CC(=O)O)cc1 (stereo not shown) [PATUBE] | 2.2 % DOSE PER GRAM | 3.3 % DOSE PER GRAM | 10.6 % DOSE PER GRAM | 5.0% of total injected dose | 53.7 | 23.6% of total injected dose | 12.2 % DOSE PER GRAM | 0.87 | 5.0 Percent Injected Dose | 1.7 % DOSE PER GRAM | 2.4 % DOSE PER GRAM | 9.8 % DOSE PER GRAM | 8.9% of total injected dose | 61.7 | 36.0% of total injected dose | 7.6 % DOSE PER GRAM | 1.29 | 8.9 Percent Injected Dose | 1.46 h | – |
